The subject of experiment [1] is MHC class II molecules on fixed or non-fixed HLA-DR4 transgenic mouse splenocytes (hybridoma SC3 readout). The experiment is described as follows: Fixed APC T-cell hybridoma screen. It counts as cell-based. The following applies: co-culture with formaldehyde fixed and non-fixed HLA-DR4 splenocytes, 48 h. The procedure:
Splenocytes from HLA-DR4 transgenic mice were formaldehyde fixed by the following protocol performed at room temperature; 5 min incubation with 0.5% w/v formaldehyde in PBS at 1×10^6 cells/mL quenched by addition of an equal volume of 0.4 M glycine in PBS solution for a further 5 min, before three washes with cold PBS. T-cell hybridoma screens were set up using 1×10^5 hybridomas and either 2×10^5 formaldehyde fixed APCs or 2×10^5 non-fixed APCs for 48 h co-culture with stimulant or control and responses measured by IL-2 secretion.
The next step was to test if GAD65 P10.5.C+1.6K (P10Sol; SEQ ID NO 23) could bind to: (i) MHC class II molecules without antigen processing and, (ii) to steady-state CD11c^+ APCs. These properties are good indicators of whether a peptide can induce tolerance and be characterised as an apitope (Shepard et al., 2021). Formaldehyde fixation of splenocytes inhibits antigen processing and so to test whether GAD65 P10Sol could bind directly to cell-surface MHC class II without antigen processing, GAD65 P10-specific hybridoma SC3 was co-cultured with fixed or non-fixed splenocytes from HLA-DR4 transgenic mice. […] To test whether P10Sol could bind to steady-state CD11c^+ APCs in vivo, HLA-DR4 transgenic mice were injected with 80 μg of P10Sol or PBS, with CD11c^+ splenocytes isolated 1 h later and co-cultured with GAD65 P10 hybridomas SC3 or SC22. […]

The test system of experiment [2] is PBMCs from T1D patients (CD25+ CD71+ CTVmid CD4+ T-cells). The experiment is described as follows: FAIM assay with PBMCs from T1D patients. The settings on record: 34/38 T1D patients. It counts as cell-based, human. From the text:
FIG. 7. GAD65 P10Sol response rate in T1D patients. (A) T1D PBMCs were screened using the FAIM assay for responsiveness to GAD65 P10 30-mer and GAD65 P10Sol with paired ^3H-thymidine samples were acquired for each condition. A positive response for FAIM assay required a proliferating CD25^+ CD71^+ CD4 T-cell count >25 and the population SI to be ≥2× the negative control. A positive response for the ^3H-thymidine assay required raw counts >1000 and a SI of ≥3× the negative control. […] The scale for both heat maps is Log 2 (stimulation index (SI)). […] (B) Agreement analysis for the outcomes of the flow cytometric and ^3H-thymidine proliferation readouts of the FAIM assay. (C) Paired analysis of stimulation indexes from FAIM^+ and ^3H-thymidine readouts, wilcoxon matched-pairs sign rank test.
Soluble candidate peptide GAD65 P10Sol (SEQ ID NO 23) was used as a representative peptide and tested for induction of tolerance in a suitable HLA-DR transgenic mouse model (FIG. 1A). […] The FAIM assay involves a fluorescent dye-labelled CD4^+ cell enriched culture with a primary flow cytometric readout assessing CD4 T-cell fluorescent dye dilution and cell-surface activation marker expression with optional paired readouts of ^3H-thymidine incorporation and secreted cytokine measurement. […]

Data on one sequence can be found in patent US20260034200A1, “TOLEROGENIC PEPTIDES” (University of Birmingham, priority 2022, published 2026).

For the sequence “DAAWGGGLLMSRKHKWKLSGVERANSVTWN [P10 30-mer]”, in experiment [1], the “IL-2 response from hybridoma SC3” value was “strong IL-2 responses”. Moreover, in experiment [2], the “T1D patients responding (FAIM+)” value was determined as 89%.
